Experimental data from ChEMBL document CHEMBL5653631, “A Potent and Selective ULK1 Inhibitor Suppresses Autophagy and Sensitizes Cancer Cells to Nutrient Stress” (iScience, 2018).

What was measured:
[1] = biological target: T1, Serine/threonine-protein kinase TBK1 (Homo sapiens) (UniProt Q9UHD2); assay: Inhibition of human recombinant TBK1 at 500 nM related to control ULK1
T1 sequence (whole entry): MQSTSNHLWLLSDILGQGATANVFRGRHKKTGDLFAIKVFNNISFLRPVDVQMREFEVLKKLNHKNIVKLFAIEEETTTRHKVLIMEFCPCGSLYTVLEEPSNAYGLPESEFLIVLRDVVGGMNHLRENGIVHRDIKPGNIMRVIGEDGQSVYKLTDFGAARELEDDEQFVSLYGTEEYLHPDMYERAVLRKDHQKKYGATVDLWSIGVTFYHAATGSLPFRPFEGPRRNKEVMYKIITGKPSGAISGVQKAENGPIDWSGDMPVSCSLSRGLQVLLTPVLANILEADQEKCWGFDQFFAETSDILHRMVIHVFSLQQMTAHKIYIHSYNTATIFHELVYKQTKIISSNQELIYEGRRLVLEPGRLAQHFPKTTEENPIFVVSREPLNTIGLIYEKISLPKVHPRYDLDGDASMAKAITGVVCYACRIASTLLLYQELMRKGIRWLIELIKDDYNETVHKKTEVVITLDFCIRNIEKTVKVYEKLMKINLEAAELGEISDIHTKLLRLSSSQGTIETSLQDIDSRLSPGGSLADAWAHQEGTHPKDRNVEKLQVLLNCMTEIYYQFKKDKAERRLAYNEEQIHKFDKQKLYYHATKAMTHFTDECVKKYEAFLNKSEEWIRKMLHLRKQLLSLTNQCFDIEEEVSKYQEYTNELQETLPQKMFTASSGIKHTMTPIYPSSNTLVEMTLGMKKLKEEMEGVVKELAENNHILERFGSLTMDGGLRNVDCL

[2] = biological target: T2, Tyrosine-protein kinase ZAP-70 (Homo sapiens) (UniProt P43403); assay: Inhibition of human recombinant ZAP70 at 500 nM in presence of ATP by radiometric assay relative to control
T2 sequence (whole entry): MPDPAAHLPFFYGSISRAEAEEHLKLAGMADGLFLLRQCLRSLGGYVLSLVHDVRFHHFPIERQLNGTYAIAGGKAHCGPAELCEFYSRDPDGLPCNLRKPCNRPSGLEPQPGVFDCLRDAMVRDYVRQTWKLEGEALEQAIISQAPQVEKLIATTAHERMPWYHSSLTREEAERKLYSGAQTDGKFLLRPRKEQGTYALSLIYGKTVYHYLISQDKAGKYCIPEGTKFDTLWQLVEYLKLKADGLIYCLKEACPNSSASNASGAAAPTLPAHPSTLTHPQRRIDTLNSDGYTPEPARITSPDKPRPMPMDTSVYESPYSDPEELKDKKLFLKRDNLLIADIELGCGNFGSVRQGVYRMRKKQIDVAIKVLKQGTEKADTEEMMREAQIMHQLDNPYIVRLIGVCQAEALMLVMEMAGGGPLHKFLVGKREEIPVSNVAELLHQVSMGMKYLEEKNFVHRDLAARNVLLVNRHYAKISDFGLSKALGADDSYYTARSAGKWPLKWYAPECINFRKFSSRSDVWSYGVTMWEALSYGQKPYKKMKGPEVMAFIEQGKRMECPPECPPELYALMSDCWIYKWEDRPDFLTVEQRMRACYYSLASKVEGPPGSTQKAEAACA

[3] = biological target: T3, Bone morphogenetic protein receptor type-2 (Homo sapiens) (UniProt Q13873); assay: Inhibition of human recombinant BMPR2 at 15 nM related to control ULK1
T3 sequence (whole entry): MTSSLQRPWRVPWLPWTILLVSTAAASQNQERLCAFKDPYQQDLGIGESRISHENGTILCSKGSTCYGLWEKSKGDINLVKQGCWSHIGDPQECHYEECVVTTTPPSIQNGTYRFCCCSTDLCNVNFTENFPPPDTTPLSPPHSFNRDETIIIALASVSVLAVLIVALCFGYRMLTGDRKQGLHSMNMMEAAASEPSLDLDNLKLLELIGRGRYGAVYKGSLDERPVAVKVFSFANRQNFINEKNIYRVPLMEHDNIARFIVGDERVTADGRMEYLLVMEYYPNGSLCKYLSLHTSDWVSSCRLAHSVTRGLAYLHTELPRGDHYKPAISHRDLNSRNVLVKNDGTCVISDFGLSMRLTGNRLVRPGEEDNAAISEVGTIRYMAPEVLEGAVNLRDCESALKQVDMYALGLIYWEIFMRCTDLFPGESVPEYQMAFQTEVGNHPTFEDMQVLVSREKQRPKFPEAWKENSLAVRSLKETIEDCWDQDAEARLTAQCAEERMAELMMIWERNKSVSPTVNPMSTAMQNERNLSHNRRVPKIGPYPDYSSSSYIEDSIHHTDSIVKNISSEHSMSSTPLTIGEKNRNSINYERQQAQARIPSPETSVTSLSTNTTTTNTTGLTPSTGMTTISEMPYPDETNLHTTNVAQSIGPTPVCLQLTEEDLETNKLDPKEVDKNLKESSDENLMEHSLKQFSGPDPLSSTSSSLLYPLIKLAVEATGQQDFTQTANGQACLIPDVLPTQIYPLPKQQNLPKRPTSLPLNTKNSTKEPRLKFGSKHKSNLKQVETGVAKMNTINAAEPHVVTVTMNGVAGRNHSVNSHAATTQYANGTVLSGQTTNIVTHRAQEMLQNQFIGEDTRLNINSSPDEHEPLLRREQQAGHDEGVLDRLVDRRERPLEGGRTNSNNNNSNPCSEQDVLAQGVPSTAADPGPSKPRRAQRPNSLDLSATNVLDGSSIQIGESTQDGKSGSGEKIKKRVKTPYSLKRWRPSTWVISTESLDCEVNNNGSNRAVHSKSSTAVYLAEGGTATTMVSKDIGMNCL

What does the source list for `CNC(=O)c1ccccc1Oc1nc(Nc2cc(OC)c(OC)c(OC)c2)ncc1Br`?
fold change (FC) [1]: 0; inhibition [2]: 1%

`CC(C)[C@H](NC(=O)c1cc(-c2cnn3cc(-c4ccc(OCCN5CCCCC5)cc4)cnc23)cs1)C(F)(F)F` was tested. Which fold change (FC) [3] did it give?
Its fold change (FC) is 0.06.
